The target of this assay is T1, Androgen Receptor (Homo sapiens, UniProt P10275, T878A).
T1 construct: the AR gene was modified, using CRISPR/Cas9 editing, so the expressed AR protein included an 11 amino acid HiBiT tag; endogenous in cells; host or cells: clonal LnCaP-derived line, AR gene edited by CRISPR/Cas9
The assay can be described thus: Androgen Receptor Degradation Assay (Nano-Glo HiBiT). Format: cell-based. Conditions: LNCaP, 18 h, HiBiT-tagged AR in human LnCaP cells, read-out: mean asymptote max. The procedure:
Degradation of Androgen Receptor protein in human LnCaP cells treated with PROTACs was quantified using the Nano-Glo® HiBiT Lytic Detection System (Promega) in 384 well assay plate format. A clonal LnCaP derived cell line was first established in which the AR gene was modified, using CRISPR/Cas9 editing, so the expressed AR protein included an 11 amino acid HiBiT tag at its amino-terminus. 10 mM DMSO stock solutions of PROTACs were prepared and diluted across an 11 concentration, 3 fold increment range, and 25 nL dispensed into a white opaque bottomed 384 well assay plate (Thermofisher) using an acoustic ECHO dispenser (Labcyte). […] For the assay, cells were detached from flask and resuspended with assay medium (FluoroBrite™ DMEM supplemented with 10% heat inactivated FBS, penicillin 50 U/mL and streptomycin 50 ug/mL (Thermofisher)). The cell suspension was centrifuged at 400 g for 5 min and the pellet resuspended in assay medium. 25 μL of cell suspension containing 10,000 cells was dispensed into each well of the assay plate containing the test compounds, which was then incubated for 18 h at 37° C./5% CO2. Control wells were included on each assay plate, with assay medium without cells being the no AR remaining 100% effect control, and cells treated with DMSO vehicle only, without PROTAC, the 0% effect control. 25 μL of Nano-Glo® HiBiT lysis buffer supplemented with LgBiT protein and Nano-Glo® substrate (Promega) was added to each well and the plate shaken at 500 rpm for 10 min at room temperature. The intensity of luminescence was measured using a PHERAstar microplate reader (BMG Labtech) and the % AR protein remaining in each well calculated by normalising the raw luminescence value to the above control wells. Parameters corresponding to the potency and efficacy estimates of the PROTACs were obtained from these normalised luminescence values using software (IDBS ActivityBase). These included the DC50 and the Dmax estimates. Two versions of the DC50, called relative DC50 and absolute DC50, were typically generated. These are the inflection point of a fitted 4 parameter sigmoidal response curve and the interpolated concentration of PROTAC corresponding to 50% of the protein being degraded, respectively. The Dmax parameter was the maximum experimentally observed degradation and the asymptote max parameter the fitted response curve asymptote maximum.

Where a name gives a salt, the structure may show the parent alone.

T1 sequence (P10275 whole entry T878A): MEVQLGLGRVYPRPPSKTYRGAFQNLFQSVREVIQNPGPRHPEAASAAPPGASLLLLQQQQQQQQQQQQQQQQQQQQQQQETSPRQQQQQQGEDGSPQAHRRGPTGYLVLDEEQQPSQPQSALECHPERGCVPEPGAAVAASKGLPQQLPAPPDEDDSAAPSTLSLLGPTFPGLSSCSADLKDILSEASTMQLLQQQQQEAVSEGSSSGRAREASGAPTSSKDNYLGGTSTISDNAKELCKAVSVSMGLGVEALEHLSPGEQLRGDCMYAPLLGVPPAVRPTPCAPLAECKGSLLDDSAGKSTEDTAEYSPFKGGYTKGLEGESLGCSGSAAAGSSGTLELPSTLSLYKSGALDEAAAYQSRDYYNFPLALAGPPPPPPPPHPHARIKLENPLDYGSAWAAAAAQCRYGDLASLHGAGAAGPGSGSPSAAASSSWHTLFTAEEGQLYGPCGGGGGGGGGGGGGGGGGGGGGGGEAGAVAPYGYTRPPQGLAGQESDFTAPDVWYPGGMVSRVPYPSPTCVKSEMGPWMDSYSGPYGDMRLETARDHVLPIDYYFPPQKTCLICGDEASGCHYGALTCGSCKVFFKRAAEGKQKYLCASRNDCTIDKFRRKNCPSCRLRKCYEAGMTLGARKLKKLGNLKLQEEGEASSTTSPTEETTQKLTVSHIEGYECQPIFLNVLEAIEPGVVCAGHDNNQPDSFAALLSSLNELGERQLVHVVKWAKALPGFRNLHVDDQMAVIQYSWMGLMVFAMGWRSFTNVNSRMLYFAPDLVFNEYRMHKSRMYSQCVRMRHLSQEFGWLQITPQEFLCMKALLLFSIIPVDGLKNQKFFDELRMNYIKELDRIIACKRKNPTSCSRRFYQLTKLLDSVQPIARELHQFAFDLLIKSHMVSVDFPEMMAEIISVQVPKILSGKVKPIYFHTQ
T1 sequence (Q96SW2 whole entry partner): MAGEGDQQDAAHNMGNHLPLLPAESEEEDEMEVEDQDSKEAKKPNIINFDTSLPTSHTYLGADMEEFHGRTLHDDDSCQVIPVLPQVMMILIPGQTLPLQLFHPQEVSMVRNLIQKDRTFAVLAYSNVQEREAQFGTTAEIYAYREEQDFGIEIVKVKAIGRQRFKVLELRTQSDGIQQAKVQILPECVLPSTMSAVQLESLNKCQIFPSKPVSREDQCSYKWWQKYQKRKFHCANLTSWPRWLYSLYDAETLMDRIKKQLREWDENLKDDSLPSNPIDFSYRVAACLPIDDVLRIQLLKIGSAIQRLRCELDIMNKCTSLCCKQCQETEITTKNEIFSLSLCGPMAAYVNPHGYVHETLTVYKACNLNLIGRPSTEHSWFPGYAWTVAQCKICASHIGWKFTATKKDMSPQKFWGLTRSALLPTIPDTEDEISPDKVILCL
T1 sequence (Q16531 whole entry partner): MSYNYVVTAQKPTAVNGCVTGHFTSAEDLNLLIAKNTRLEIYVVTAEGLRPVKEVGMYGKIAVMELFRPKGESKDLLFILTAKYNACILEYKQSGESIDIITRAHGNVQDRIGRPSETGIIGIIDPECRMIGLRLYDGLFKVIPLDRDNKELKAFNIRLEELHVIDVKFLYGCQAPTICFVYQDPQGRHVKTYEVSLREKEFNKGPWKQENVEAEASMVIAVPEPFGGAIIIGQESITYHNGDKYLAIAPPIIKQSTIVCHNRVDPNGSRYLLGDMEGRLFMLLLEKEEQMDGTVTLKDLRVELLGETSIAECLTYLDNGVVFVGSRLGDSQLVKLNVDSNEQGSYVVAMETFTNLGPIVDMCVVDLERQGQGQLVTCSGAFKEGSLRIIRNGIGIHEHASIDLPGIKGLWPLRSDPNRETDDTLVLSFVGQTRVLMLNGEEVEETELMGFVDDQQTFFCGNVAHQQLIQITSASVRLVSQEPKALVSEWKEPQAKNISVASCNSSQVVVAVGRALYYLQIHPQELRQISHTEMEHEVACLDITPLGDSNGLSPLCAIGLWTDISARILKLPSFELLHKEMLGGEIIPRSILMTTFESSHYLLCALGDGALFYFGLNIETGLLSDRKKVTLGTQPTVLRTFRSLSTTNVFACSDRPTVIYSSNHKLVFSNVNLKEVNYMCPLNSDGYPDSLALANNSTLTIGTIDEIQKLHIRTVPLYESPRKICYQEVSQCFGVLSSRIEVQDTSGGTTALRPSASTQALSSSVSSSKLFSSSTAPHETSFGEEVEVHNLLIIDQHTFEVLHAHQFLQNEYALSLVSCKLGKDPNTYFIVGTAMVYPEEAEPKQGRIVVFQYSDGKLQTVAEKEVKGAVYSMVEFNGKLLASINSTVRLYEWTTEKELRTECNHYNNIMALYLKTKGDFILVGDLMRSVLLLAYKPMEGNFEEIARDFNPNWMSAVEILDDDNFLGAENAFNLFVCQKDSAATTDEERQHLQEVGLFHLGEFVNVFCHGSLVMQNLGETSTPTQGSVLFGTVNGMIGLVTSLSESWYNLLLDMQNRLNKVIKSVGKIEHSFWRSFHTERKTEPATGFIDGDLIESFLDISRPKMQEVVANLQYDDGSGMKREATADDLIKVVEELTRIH

Regarding `CN(c1ccc(C#N)c(Cl)c1)[C@H]1CC[C@H](NC(=O)c2ccc(N3CCC(CN4CCC(n5ccc6c(N7CCC(=O)NC7=O)ncnc65)CC4)CC3)nn2)CC1` [EAR214, N-((1r,4r)-4-((3-Chloro-4-cyanophenyl)(methyl)amino)cyclohexyl)-6-(4-((4-(4-(2,4-dioxotetrahydropyrimidin-1(2H)-yl)-7H-pyrrolo[2,3-d]pyrimidin-7-yl)piperidin-1-yl)methyl)piperidin-1-yl)pyridazine-3-carboxamide hydrochloride], the Dmax was at least 50%.

Regarding `C[C@@H]1CN(C(=O)Nc2cnc(N3CCC(CN4CCC(n5ccc6c(N7CCC(=O)NC7=O)cccc65)CC4)CC3)nc2)[C@@H](C)CN1c1ccc(C#N)c(Cl)c1` [EAR116, (2S,5R)-4-(3-Chloro-4-cyanophenyl)-N-(2-(4-((4-(4-(2,4-dioxotetrahydropyrimidin-1(2H)-yl)-1H-indol-1-yl)piperidin-1-yl)methyl)piperidin-1-yl)pyrimidin-5-yl)-2,5-dimethylpiperazine-1-carboxamide], the Dmax is at least 50%.

As for `N#Cc1ccc(O[C@H]2CC[C@H](NC(=O)c3ccc(N4CCC(CN5CCC(n6ncc7c(N8CCC(=O)NC8=O)cccc76)CC5)CC4)nn3)CC2)cc1C(F)(F)F` [EAR44, N-((1r,4r)-4-(4-Cyano-3-(trifluoromethyl)phenoxy)cyclohexyl)-6-(4-((4-(4-(2,4-dioxotetrahydropyrimidin-1(2H)-yl)-1H-indazol-1-yl)piperidin-1-yl)methyl)piperidin-1-yl)pyridazine-3-carboxamide], the Dmax was at least 50%.

For the compound `N#Cc1ccc(O[C@H]2CC[C@H](NC(=O)c3ccc(N4CCC(CN5CCC(n6ccc7c(N8CCC(=O)NC8=O)cncc76)CC5)CC4)nn3)CC2)cc1C(F)(F)F` [EAR45, N-((1r,4r)-4-(4-Cyano-3-(trifluoromethyl)phenoxy)cyclohexyl)-6-(4-((4-(4-(2,4-dioxotetrahydropyrimidin-1(2H)-yl)-1H-pyrrolo[2,3-c]pyridin-1-yl)piperidin-1-yl)methyl)piperidin-1-yl)pyridazine-3-carboxamide], the Dmax is at least 50%.

As for `C[C@@H]1CN(c2ccc(C#N)c(Cl)c2)[C@@H](C)CN1C(=O)c1cnc(N2CCC(CN3CCC(n4ccc5c(N6CCC(=O)NC6=O)cncc54)CC3)CC2)cn1` [EAR147, 2-Chloro-4-((2S,5R)-4-(5-(4-((4-(4-(2,4-dioxotetrahydropyrimidin-1(2H)-yl)-1H-pyrrolo[2,3-c]pyridin-1-yl)piperidin-1-yl)methyl)piperidin-1-yl)pyrazine-2-carbonyl)-2,5-dimethylpiperazin-1-yl)benzonitrile], the Dmax was at least 50%.

Regarding `N#Cc1ccc(O[C@H]2CC[C@H](NC(=O)c3ccc(N4CCC(CN5CCC(F)(Cn6ccc7c(N8CCC(=O)NC8=O)cccc76)CC5)CC4)nn3)CC2)cc1Cl` [EAR168, N-((1r,4r)-4-(3-Chloro-4-cyanophenoxy)cyclohexyl)-6-(4-((4-((4-(2,4-dioxotetrahydropyrimidin-1(2H)-yl)-1H-indol-1-yl)methyl)-4-fluoropiperidin-1-yl)methyl)piperidin-1-yl)pyridazine-3-carboxamide], the Dmax was at least 50%.

With `N#Cc1ccc(O[C@H]2CC[C@H](NC(=O)c3ccc(N4CCC(CN5CCC[C@@H](n6ccc7c(N8CCC(=O)NC8=O)cccc76)C5)CC4)nn3)CC2)cc1Cl` [EAR184, N-((1r,4r)-4-(3-Chloro-4-cyanophenoxy)cyclohexyl)-6-(4-(((S)-3-(4-(2,4-dioxotetrahydropyrimidin-1(2H)-yl)-1H-indol-1-yl)piperidin-1-yl)methyl)piperidin-1-yl)pyridazine-3-carboxamide hydrochloride], the Dmax is at least 50%.

For the compound `N#Cc1ccc(O[C@H]2CC[C@H](NC(=O)c3ccc(N4CCC[C@@H](CN5CCC(n6ccc7c(N8CCC(=O)NC8=O)cccc76)CC5)C4)nn3)CC2)cc1Cl` [EAR143, N-((1r,4R)-4-(3-chloro-4-cyanophenoxy)cyclohexyl)-6-((S)-3-((4-(4-(2,4-dioxotetrahydropyrimidin-1(2H)-yl)-1H-indol-1-yl)piperidin-1-yl)methyl)piperidin-1-yl)pyridazine-3-carboxamide], the Dmax was at least 50%.

Consider `C[C@@H]1CN(c2ccc(C#N)c(Cl)c2)[C@@H](C)CN1C(=O)c1cnc(N2CCC(CN3CCC(n4ncc5c(N6CCC(=O)NC6=O)cncc54)CC3)CC2)cn1` [EAR150, 2-Chloro-4-((2S,5R)-4-(5-(4-((4-(4-(2,4-dioxotetrahydropyrimidin-1(2H)-yl)-1H-pyrazolo[3,4-c]pyridin-1-yl)piperidin-1-yl)methyl)piperidin-1-yl)pyrazine-2-carbonyl)-2,5-dimethylpiperazin-1-yl)benzonitrile], for which the Dmax was at least 50%.

In the case of `N#Cc1ccc(O[C@H]2CC[C@H](NC(=O)c3ccc(N4CCC(N5CCC(n6ccc7c(N8CCC(=O)NC8=O)cccc76)CC5)CC4)nn3)CC2)cc1Cl` [AR7, N-((1r,4r)-4-(3-Chloro-4-cyanophenoxy)cyclohexyl)-6-(4-(4-(2,4-dioxotetrahydropyrimidin-1(2H)-yl)-1H-indol-1-yl)-[1,4′-bipiperidin]-1′-yl)pyridazine-3-carboxamide], the Dmax was at least 50%.

As for `N#Cc1ccc(O[C@H]2CC[C@H](NC(=O)c3ccc(N4CCC(CN5CCC(n6ncc7c(N8CCC(=O)NC8=O)nccc76)CC5)CC4)nn3)CC2)cc1C(F)(F)F` [EAR209, N-((1r,4r)-4-(4-cyano-3-(trifluoromethyl)phenoxy)cyclohexyl)-6-(4-((4-(4-(2,4-dioxotetrahydropyrimidin-1(2H)-yl)-1H-pyrazolo[4,3-c]pyridin-1-yl)piperidin-1-yl)methyl)piperidin-1-yl)pyridazine-3-carboxamide], the Dmax is at least 50%.

For the compound `N#Cc1ccc(O[C@H]2CC[C@H](NC(=O)c3ccc(N4CCN(CC(=O)N5CCC(n6ccc7c(N8CCC(=O)NC8=O)cccc76)CC5)CC4)nn3)CC2)cc1Cl` [EAR134, N-((1r,4r)-4-(3-Chloro-4-cyanophenoxy)cyclohexyl)-6-(4-(2-(4-(4-(2,4-dioxotetrahydropyrimidin-1(2H)-yl)-1H-indol-1-yl)piperidin-1-yl)-2-oxoethyl)piperazin-1-yl)pyridazine-3-carboxamide], the Dmax is at least 50%.

Consider `N#Cc1ccc(O[C@H]2CC[C@H](NC(=O)c3cnc(N4CCC(CN5CCC(n6ccc7c(N8CCC(=O)NC8=O)nccc76)CC5)CC4)nc3)CC2)cc1Cl` [EAR211, N-((1r,4r)-4-(3-chloro-4-cyanophenoxy)cyclohexyl)-2-(4-((4-(4-(2,4-dioxotetrahydropyrimidin-1(2H)-yl)-1H-pyrrolo[3,2-c]pyridin-1-yl)piperidin-1-yl)methyl)piperidin-1-yl)pyrimidine-5-carboxamide hydrochloride], for which the Dmax is at least 50%.

As for `N#Cc1ccc(O[C@H]2CC[C@H](NC(=O)c3cnc(N4CCC(CN5CCC(n6ncc7c(N8CCC(=O)NC8=O)c(F)ccc76)CC5)CC4)cn3)CC2)cc1Cl` [EAR190, N-((1r,4r)-4-(3-Chloro-4-cyanophenoxy)cyclohexyl)-5-(4-((4-(4-(2,4-dioxotetrahydropyrimidin-1(2H)-yl)-5-fluoro-1H-indazol-1-yl)piperidin-1-yl)methyl)piperidin-1-yl)pyrazine-2-carboxamide hydrochloride], the Dmax was at least 50%.

The values above are taken from patent US20250205344A1, “2,4-DIOXOTETRAHYDROPYRIMIDINYL DERATIVES AS DEGRONS IN PROTACS” (GLAXOSMITHKLINE INTELLECTUAL PROPERTY DEVELOPMENT LIMITED, priority 2022, published 2025).
